Laboratory results: PubChem BioAssay (NCI)
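Cells were grown in 96-well plates and exposed to each compound for 48 hours at five concentrations; endpoints were interpolated linearly between bracketing concentrations, or set to the highest concentration if not reached. At the GI50, growth is halved. The concentration for full growth arrest is given as TGI.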

What was measured:
Assay in all cases: inhibition of tumour cell growth, NCI panel, 48 h
786-0 renal = test system: 786-0 renal
A498 renal = test system: A498 renal
A549 NSCLC = test system: A549 NSCLC
ACHN renal = test system: ACHN renal
BT-549 breast = test system: BT-549 breast
CAKI-1 renal = test system: CAKI-1 renal
CCRF-CEM leukemia = test system: CCRF-CEM leukemia
COLO 205 colon = test system: COLO 205 colon
DU-145 prostate = test system: DU-145 prostate
EKVX NSCLC = test system: EKVX NSCLC
HCC-2998 colon = test system: HCC-2998 colon
HCT-116 colon = test system: HCT-116 colon
HCT-15 colon = test system: HCT-15 colon
HL-60(TB) leukemia = test system: HL-60(TB) leukemia
HOP-62 NSCLC = test system: HOP-62 NSCLC
HOP-92 NSCLC = test system: HOP-92 NSCLC
HS 578T breast = test system: HS 578T breast
HT29 colon = test system: HT29 colon
IGROV1 ovarian = test system: IGROV1 ovarian
K-562 leukemia = test system: K-562 leukemia
KM12 colon = test system: KM12 colon
LOX IMVI melanoma = test system: LOX IMVI melanoma
M14 melanoma = test system: M14 melanoma
MALME-3M melanoma = test system: MALME-3M melanoma
MCF7 breast = test system: MCF7 breast
MDA-MB-231 breast = test system: MDA-MB-231 breast
MDA-MB-435 = test system: MDA-MB-435
MDA-MB-468 breast = test system: MDA-MB-468 breast
MOLT-4 leukemia = test system: MOLT-4 leukemia
NCI-H226 lung = test system: NCI-H226 lung
NCI-H23 lung = test system: NCI-H23 lung
NCI-H460 lung = test system: NCI-H460 lung
NCI-H522 lung = test system: NCI-H522 lung
NCI/ADR-RES ovarian = test system: NCI/ADR-RES ovarian
OVCAR-3 ovarian = test system: OVCAR-3 ovarian
OVCAR-4 ovarian = test system: OVCAR-4 ovarian
OVCAR-5 ovarian = test system: OVCAR-5 ovarian
OVCAR-8 ovarian = test system: OVCAR-8 ovarian
PC-3 prostate = test system: PC-3 prostate
RPMI-8226 leukemia = test system: RPMI-8226 leukemia
RXF 393 renal = test system: RXF 393 renal
SF-268 CNS = test system: SF-268 CNS
SF-295 CNS = test system: SF-295 CNS
SF-539 CNS = test system: SF-539 CNS
SK-MEL-2 melanoma = test system: SK-MEL-2 melanoma
SK-MEL-28 melanoma = test system: SK-MEL-28 melanoma
SK-MEL-5 melanoma = test system: SK-MEL-5 melanoma
SK-OV-3 ovarian = test system: SK-OV-3 ovarian
SN12C renal = test system: SN12C renal
SNB-19 CNS = test system: SNB-19 CNS
SNB-75 CNS = test system: SNB-75 CNS
SW-620 colon = test system: SW-620 colon
T-47D breast = test system: T-47D breast
TK-10 renal = test system: TK-10 renal
U251 CNS = test system: U251 CNS
UACC-257 melanoma = test system: UACC-257 melanoma
UACC-62 melanoma = test system: UACC-62 melanoma
UO-31 renal = test system: UO-31 renal

What does the source list for `COc1ccc(-c2nc3cc(C)ccc3n2CC(=O)N=Nc2c(O)[nH]c3ccc(Br)cc23)cc1`?
GI50 (786-0 renal): 3.48 µM; TGI (786-0 renal): 16.6 µM; GI50 (A498 renal): 24.9 µM; TGI (A498 renal): 60.1 µM; GI50 (A549 NSCLC): 1.75 µM; TGI (A549 NSCLC): 3.95 µM; GI50 (ACHN renal): 2.38 µM; TGI (ACHN renal): 8.75 µM; GI50 (BT-549 breast): 2.05 µM; TGI (BT-549 breast): 5.92 µM; GI50 (CAKI-1 renal): 3.6 µM; TGI (CAKI-1 renal): 29.1 µM; GI50 (CCRF-CEM leukemia): 3.05 µM; TGI (CCRF-CEM leukemia): 32.1 µM; GI50 (COLO 205 colon): 2.29 µM; TGI (COLO 205 colon): 8.06 µM; GI50 (DU-145 prostate): 3.29 µM; TGI (DU-145 prostate): 16.1 µM; GI50 (EKVX NSCLC): 2.1 µM; TGI (EKVX NSCLC): 11.2 µM; GI50 (HCC-2998 colon): 2.75 µM; TGI (HCC-2998 colon): 16.4 µM; GI50 (HCT-116 colon): 1.88 µM; TGI (HCT-116 colon): 4.49 µM; GI50 (HCT-15 colon): 2.83 µM; TGI (HCT-15 colon): 16.9 µM; GI50 (HL-60(TB) leukemia): 5.51 µM; TGI (HL-60(TB) leukemia): > 84.5 µM; GI50 (HOP-62 NSCLC): 2.31 µM; TGI (HOP-62 NSCLC): 9.66 µM; GI50 (HOP-92 NSCLC): 1.34 µM; TGI (HOP-92 NSCLC): 4.59 µM; GI50 (HS 578T breast): 1.96 µM; TGI (HS 578T breast): 6.44 µM; GI50 (HT29 colon): 1.98 µM; TGI (HT29 colon): 4.36 µM; GI50 (IGROV1 ovarian): 2.93 µM; TGI (IGROV1 ovarian): 18.2 µM; GI50 (K-562 leukemia): 3.66 µM; TGI (K-562 leukemia): > 84.5 µM; GI50 (KM12 colon): 2.81 µM; TGI (KM12 colon): 16 µM; GI50 (LOX IMVI melanoma): 1.48 µM; TGI (LOX IMVI melanoma): 3.29 µM; GI50 (M14 melanoma): 1.6 µM; TGI (M14 melanoma): 3.49 µM; GI50 (MALME-3M melanoma): 1.59 µM; TGI (MALME-3M melanoma): 3.2 µM; GI50 (MCF7 breast): 2.23 µM; TGI (MCF7 breast): 10.2 µM; GI50 (MDA-MB-231 breast): 2.17 µM; TGI (MDA-MB-231 breast): 7.97 µM; GI50 (MDA-MB-435): 2.12 µM; TGI (MDA-MB-435): 7.52 µM; GI50 (MDA-MB-468 breast): 1.88 µM; TGI (MDA-MB-468 breast): 4.41 µM; GI50 (MOLT-4 leukemia): 3.22 µM; TGI (MOLT-4 leukemia): 44.5 µM; GI50 (NCI-H226 lung): 1.97 µM; TGI (NCI-H226 lung): 7.23 µM; GI50 (NCI-H23 lung): 1.93 µM; TGI (NCI-H23 lung): 5.88 µM; GI50 (NCI-H460 lung): 1.86 µM; TGI (NCI-H460 lung): 4.1 µM; GI50 (NCI-H522 lung): 7.39 µM; TGI (NCI-H522 lung): 31.1 µM; GI50 (NCI/ADR-RES ovarian): 1.88 µM; TGI (NCI/ADR-RES ovarian): 5 µM; GI50 (OVCAR-3 ovarian): 1.93 µM; TGI (OVCAR-3 ovarian): 4.29 µM; GI50 (OVCAR-4 ovarian): 2.76 µM; TGI (OVCAR-4 ovarian): 11.2 µM; GI50 (OVCAR-5 ovarian): 2.56 µM; TGI (OVCAR-5 ovarian): 13.6 µM; GI50 (OVCAR-8 ovarian): 1.58 µM; TGI (OVCAR-8 ovarian): 3.49 µM; GI50 (PC-3 prostate): 2.07 µM; TGI (PC-3 prostate): 14.5 µM; GI50 (RPMI-8226 leukemia): 2.98 µM; TGI (RPMI-8226 leukemia): 42.2 µM; GI50 (RXF 393 renal): 1.33 µM; TGI (RXF 393 renal): 3.54 µM; GI50 (SF-268 CNS): 2.94 µM; TGI (SF-268 CNS): 31.7 µM; GI50 (SF-295 CNS): 2.93 µM; TGI (SF-295 CNS): 14.2 µM; GI50 (SF-539 CNS): 1.55 µM; TGI (SF-539 CNS): 3.36 µM; GI50 (SK-MEL-2 melanoma): 3.28 µM; TGI (SK-MEL-2 melanoma): 18.6 µM; GI50 (SK-MEL-28 melanoma): 1.51 µM; TGI (SK-MEL-28 melanoma): 2.96 µM; GI50 (SK-MEL-5 melanoma): 2.59 µM; TGI (SK-MEL-5 melanoma): 8.3 µM; GI50 (SK-OV-3 ovarian): 3.92 µM; TGI (SK-OV-3 ovarian): 38.3 µM; GI50 (SN12C renal): 2.16 µM; TGI (SN12C renal): 10.6 µM; GI50 (SNB-19 CNS): 3.14 µM; TGI (SNB-19 CNS): 49.6 µM; GI50 (SNB-75 CNS): 1.61 µM; TGI (SNB-75 CNS): 12.7 µM; GI50 (SW-620 colon): 2.4 µM; TGI (SW-620 colon): 9.15 µM; GI50 (T-47D breast): 2.85 µM; TGI (T-47D breast): 34.6 µM; GI50 (TK-10 renal): 3.63 µM; TGI (TK-10 renal): 20.6 µM; GI50 (U251 CNS): 1.64 µM; TGI (U251 CNS): 3.55 µM; GI50 (UACC-257 melanoma): 1.95 µM; TGI (UACC-257 melanoma): 6.33 µM; GI50 (UACC-62 melanoma): 1.78 µM; TGI (UACC-62 melanoma): 6.09 µM; GI50 (UO-31 renal): 19.4 µM; TGI (UO-31 renal): > 84.5 µM
